The record followed here is US20140302012A1, “Combination Therapies for Treating Hematologic Malignancies Using Pyridopyrimidinone Inhibitors of PI3K/mTOR with Bendamustine and/or Rituximab” (priority 2011, published 2014).

Like-named read-outs stand apart in the source and are kept apart here.

The format of data set [1] is in vivo. Here is the method: The animals required to begin a given experiment were pooled and implanted monolaterally on day 0. Treatments were administered on measurable tumors. The solid tumors were allowed to grow to the desired volume range (animals with tumors not in the desired range were excluded). The mice were then pooled and unselectively distributed to the various treatment and control groups. Treatment started 20 days post WSU-DLCL2 tumor fragment implantation as indicated in the results section and in each table. The dosages are expressed in mg/kg, based on the body weight at start of therapy. Mice were checked daily, and adverse clinical reactions noted. Each group of mice was weighed as a whole daily until the weight nadir was reached. Then, groups were weighed once to thrice weekly until the end of the experiment. Tumors were measured with a calliper 2 to 3 times weekly until final sacrifice for sampling time, tumor reached 2000 mm^3 or until the animal died (whichever comes first). Solid tumor volumes were estimated from two-dimensional tumor measurements and calculated according to the following equation: […]
The day of death was recorded. Surviving animals were sacrificed and macroscopic examination of the thoracic and abdominal cavities was performed.
A dosage producing a 15% body weight loss (BWL) during three consecutive days (mean of group), 20% BWL during 1 day or 10% or more drug deaths was considered an excessively toxic dosage. Animal body weights included the tumor weight.

Data set [2] has as its system human WSU-DLCL2. The data set can be described thus: Antitumor activity against human WSU-DLCL2 xenografts in SCID female mice. It is filed as in vivo. The conditions noted are these: for Median (nMad) tumor volume changes from baseline: n = 7. Here is the method:
To evaluate the antitumor activity of Bendamustine in combination with the dual pan-PI3K/mTOR inhibitor Compound A, experiments were conducted using female SCID mice bearing human WSU-DLCL2 xenografts. In this study, Bendamustine at 3.5 and 7 mg/kg was tested in combination with Compound A at 20 mg/kg.
CB17/1CR-Prkdc severe combined immunodeficiency (SCID)/Crl mice, at 8-10 weeks old, were bred at Charles River France (Domaine des Oncins, 69210 L'Arbreste, France) from strains obtained from Charles River, USA. Mice were over 18 g at start of treatment after an acclimatization time of at least 5 days. […] They were housed on a 12 hours light/dark cycle. Environmental conditions including animal maintenance, room temperature (22° C.±2° C.), relative humidity (55%±15%) and lighting times were recorded by the supervisor of laboratory animal sciences and welfare (LAW) and the records are archived.
The human WSU-DLCL2 tumor model was established by implanting (SC) small tumor fragments and was maintained in SCID female mice using serial passages.
Bendamustine formulation was prepared by incorporating the compound into NaCl 0.9% at pH 3. The preparation was prepared daily prior administration. The volume of IP administration per mouse was 10 mL/kg.
(§1) Compound A formulations were prepared in 1N HCl and water for injection, final pH was 3, followed by five cycles of vortexing and sonicating. The stock solution was chemically stable 7 days in the dark at 4° C. The volume of PO administration per mouse was 10 mL/kg.
For subcutaneous implantation of tumor cells, skin in the flank of the mice was disinfected using alcohol or Betadine® solution (Alcyon) and a suspension of tumor cells was inoculated SC unilaterally under a volume of 0.2 mL using a 23 G needle.
The animals required to begin a given experiment were pooled and implanted monolaterally on day 0. Treatments were administered on measurable tumors. The solid tumors were allowed to grow to the desired volume range (animals with tumors not in the desired range were excluded). The mice were then pooled and unselectively distributed to the various treatment and control groups. […] The dosages are expressed in mg/kg, based on the body weight at start of therapy. Mice were checked daily, and adverse clinical reactions noted. Each group of mice was weighed as a whole daily until the weight nadir was reached. Then, groups were weighed once to thrice weekly until the end of the experiment. Tumors were measured with a calliper 2 to 3 times weekly until final sacrifice for sampling time, tumor reached 2000 mm^3 or until the animal died (whichever comes first). Solid tumor volumes were estimated from two-dimensional tumor measurements and calculated according to the following equation:
Tumor weight (mg)=Length (mm)×Width^2(mm^2)/2
The primary efficacy end points are ΔT/ΔC, percent median regression, partial and complete regressions (PR and CR).
Changes in tumor volume for each treated (T) and control (C) group were calculated for each tumor by subtracting the tumor volume on the day of first treatment (staging day) from the tumor volume on the specified observation day. The median ΔT is calculated for the treated group, and the median ΔC is calculated for the control group. Then the ratio ΔT/ΔC is calculated and expressed as a percentage. The dose is considered as therapeutically active when ΔT/ΔC is lower than 40% and very active when ΔT/ΔC is lower than 10%.
Partial regression: Regressions are defined as partial if the tumor volume decreases to 50% or the tumor volume at the start of treatment.
Complete regression: The CR is achieved when tumor volume=0 mm^3 (CR is considered when tumor volume cannot be recorded).
The term “therapeutic synergy” is used when the combination of two products at given doses is more efficacious than the best of the two products alone considering the same doses.

Data set [3] can be described thus: Chemical stability of Compound A stock solution. It is filed as physicochemical. As to conditions: formulation in 1N HCl and water for injection, final pH 3; in the dark at 4° C. Here is the method:
as §1

Data set [4] is described as follows: Maximum tolerated dose of Compound A administered as single agent. The conditions noted are these: twice daily.
[5] abbreviates: Bendamustine 3.5 mg/kg per injection (total 21) IP, days 20-25.
[6] abbreviates: Bendamustine 7 mg/kg per injection (total 42) IP, days 20-25.
The mark [7] stands for this setting: Compound A 20 mg/kg per injection (total 240) PO, days 20-31.

Regarding `Cn1c(CCCC(=O)O)nc2cc(N(CCCl)CCCl)ccc21` [Bendamustine, 4-[5-[Bis(2-chloroethyl)amino]-1-methylbenzimidazol-2-yl]butanoic acid], the “Average body weight change in % per mouse at nadir” value is −3.8% in data set [1] (setting [5]) and −7.2% in data set [1] (setting [6]). Moreover, the “Drug death (Day of death)” value in data set [1] (setting [5]) and in data set [1] (setting [6]) was 0/7 each time. Also, the “day of nadir (body weight)” value in data set [1] (setting [5]) turned out to be 28 days; in data set [1] (setting [6]) it was 27 days. For the same compound, in data set [1] (as single agents or in combination: Bendamustine 3.5 and 7 mg/kg, Compound A 20 mg/kg), the Tolerability result is “tolerated”. Besides, the “Regressions Complete” value in data set [2] (setting [5]) and in data set [2] (setting [6]) was 0/7 throughout. The “Regressions Partial” value in data set [2] (setting [5]) and in data set [2] (setting [6]) was 0/7 throughout. Also, the “Median (nMad) tumor volume changes from baseline” value in data set [2] (Bendamustine 3.5 mg/kg, Day 24) is given as 170 (62.3); in data set [2] (Bendamustine 3.5 mg/kg, Day 26), 222 (89); in data set [2] (Bendamustine 3.5 mg/kg, Day 28), 268 (252); in data set [2] (Bendamustine 3.5 mg/kg, Day 31), 483 (247.6); in data set [2] (Bendamustine 7 mg/kg, Day 24), 267 (198.7); in data set [2] (Bendamustine 7 mg/kg, Day 26), 317 (258). Also, the “Median (nMad) tumor volume changes from baseline” value in data set [2] (Bendamustine 7 mg/kg, Day 28) was 306 (268.4); in data set [2] (Bendamustine 7 mg/kg, Day 31), 477 (249.1).
On to `CCn1c(=O)c(-c2ccn[nH]2)cc2c(C)nc(N)nc21` [Compound A, 2-amino-8-ethyl-4-methyl-6-(1H-pyrazol-5-yl)pyrido[2,3-d]pyrimidin-7(8H)-one], for which, in data set [1] (setting [7]), the “Drug death (Day of death)” value is given as 0/7. Moreover, in data set [1] (mouse, in vivo, po, 20 mg/kg), the “Average body weight change in % per mouse at nadir” value is given as −2.0%. In addition, the “day of nadir (body weight)” value in data set [1] (mouse, in vivo, po, 20 mg/kg) turned out to be 21 days. The “Chemical stability of stock solution” value in data set [3] stood at 7 days. For the same compound, the “Regressions Complete” value in data set [2] (setting [7]) is 0/7. Further, the “Regressions Partial” value in data set [2] (setting [7]) was 0/7. For the same compound, in data set [2] (Compound A 20 mg/kg per injection (total 240) PO, days 20-31, day 31, 20 mg/kg), the “Median ΔT/ΔC in % day 31” value was determined as 54%. Besides, the “Median (nMad) tumor volume changes from baseline” value in data set [2] (Compound A 20 mg/kg, Day 24) is on record as 145 (139.4); in data set [2] (Compound A 20 mg/kg, Day 26) it was 218 (26.7); in data set [2] (Compound A 20 mg/kg, Day 28) it was 242 (172); in data set [2] (Compound A 20 mg/kg, Day 31), 314 (317.3). The “MTD of Compound A administered as single agent” value in data set [4] is on record as 50 mg BID.
